Assay results from the NIST ThermoML archive (doi:10.1021/acs.jced.8b00302).
Numbers after ± are expanded uncertainties.

Experiment: wn = mass fraction of the nth substance listed
Details: 298.2 K, 100 kPa, Liquid, Gravity bottle method

| mass density (w1 = 0.6463) [kg/m3] | mass density (w1 = 0.2743) [kg/m3] | mass density (w1 = 0.3365) [kg/m3] | SMILES |
| --- | --- | --- | --- |
| 2016.2 ± 10 |  |  | O=S(=O)([O-])[O-].[Rb+].[Rb+] [rubidium sulfate] + O |
|  | 1293 ± 10 |  | O=S(=O)([O-])[O-].[Mg+2] [magnesium sulfate] + O |
| 2016.2 ± 10 |  | 1363.1 ± 10 | O=S(=O)([O-])[O-].[Cs+].[Cs+] [cesium sulfate] + O |
